The source of these data is patent US20250197368A1 (priority 2020, published 2025).

Molecules are shown by their SMILES. pKi: −log10 of the molar value. Where a name gives a salt, the structure may show the parent alone.

In one test the test system is human α2β3γ2 GABAARs. Put plainly: In vitro electrophysiological recording assay (automated patch-clamp), α2-GABAAR relative efficacy. In kind it is cell-based. The note with it: % efficacy normalised to diazepam; GABA EC10-20; concentration generally >= 100 times Ki. In outline: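 Automated whole-cell patch clamp at 20-22° C on L(tk^−) cells (QPatch, −65 mV) or HEK293 cells (SyncroPatch, −80 mV) stably expressing the human receptor. Compound pre-applied ≥1 min, then co-applied with GABA EC10-20; % potentiation of leak-corrected peak current, normalised to diazepam, typically at ≥100× Ki.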
In general terms: In patch-clamp work, channel activity is measured electrically.

In test [1] the target is human α2β3γ2 GABAARs (benzodiazepine site) (Homo sapiens (Human), UniProt P18507+P47869). As to the kind of experiment: In vitro radioligand binding assay ([3H]Ro15-1788 displacement), α2-GABAAR Ki. In outline:
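Membranes from dexamethasone-induced mouse L(tk−) cells stably expressing the human receptor were incubated 1 h at 4° C with 4 nM [3H]Ro15-1788 and graded compound; nonspecific binding with 1-3 μM TP003. Filter-bound radioactivity counted; Ki from IC50 by Cheng-Prusoff using the measured radioligand Kd.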

Chain of human α2β3γ2 GABAARs (benzodiazepine site) (P47869 29-451): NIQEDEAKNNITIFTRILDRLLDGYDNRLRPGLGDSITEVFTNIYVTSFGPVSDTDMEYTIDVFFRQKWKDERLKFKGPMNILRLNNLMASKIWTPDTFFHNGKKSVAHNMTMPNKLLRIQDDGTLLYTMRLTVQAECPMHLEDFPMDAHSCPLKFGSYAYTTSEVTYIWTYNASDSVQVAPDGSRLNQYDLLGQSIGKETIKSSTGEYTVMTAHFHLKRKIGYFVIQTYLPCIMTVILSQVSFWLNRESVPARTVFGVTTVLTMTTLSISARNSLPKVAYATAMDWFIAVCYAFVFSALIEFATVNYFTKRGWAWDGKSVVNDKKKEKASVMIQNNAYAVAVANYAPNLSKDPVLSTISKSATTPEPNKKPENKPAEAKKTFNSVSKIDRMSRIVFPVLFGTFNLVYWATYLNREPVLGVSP
Chain of human α2β3γ2 GABAARs (benzodiazepine site) (P28472 26-473 partner): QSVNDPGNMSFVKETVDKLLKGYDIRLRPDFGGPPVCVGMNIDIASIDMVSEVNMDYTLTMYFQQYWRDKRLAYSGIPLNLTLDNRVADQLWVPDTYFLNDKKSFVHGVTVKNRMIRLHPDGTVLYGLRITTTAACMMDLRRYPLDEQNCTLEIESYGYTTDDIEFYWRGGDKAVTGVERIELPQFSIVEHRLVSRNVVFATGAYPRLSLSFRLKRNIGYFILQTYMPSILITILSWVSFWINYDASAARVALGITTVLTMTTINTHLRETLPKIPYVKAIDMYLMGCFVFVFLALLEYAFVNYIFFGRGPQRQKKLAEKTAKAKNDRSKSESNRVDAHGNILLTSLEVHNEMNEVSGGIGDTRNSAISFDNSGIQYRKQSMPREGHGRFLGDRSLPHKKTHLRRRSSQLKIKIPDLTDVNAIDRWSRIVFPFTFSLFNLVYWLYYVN
Chain of human α2β3γ2 GABAARs (benzodiazepine site) (P18507 40-475): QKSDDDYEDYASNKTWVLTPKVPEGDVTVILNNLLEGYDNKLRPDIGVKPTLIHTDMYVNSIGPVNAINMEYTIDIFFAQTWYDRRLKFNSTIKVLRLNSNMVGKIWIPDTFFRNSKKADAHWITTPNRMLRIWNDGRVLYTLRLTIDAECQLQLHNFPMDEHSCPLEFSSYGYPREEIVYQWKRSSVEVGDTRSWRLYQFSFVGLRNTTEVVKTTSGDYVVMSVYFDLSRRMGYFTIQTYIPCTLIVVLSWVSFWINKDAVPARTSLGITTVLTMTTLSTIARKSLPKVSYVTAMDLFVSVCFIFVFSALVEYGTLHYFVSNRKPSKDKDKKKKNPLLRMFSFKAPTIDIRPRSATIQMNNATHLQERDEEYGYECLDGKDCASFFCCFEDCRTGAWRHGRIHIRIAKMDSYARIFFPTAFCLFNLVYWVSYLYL

The term pKi denotes the Ki on a negative log10 scale, so that one unit is a factor of ten. As for `CCCNC(=O)c1c(N)c2cccc(-c3cncc(OCC)c3)c2[nH]c1=O` [Example 26, 4-Amino-8-(5-ethoxypyridin-3-yl)-2-oxo-N-propyl-1,2-dihydroquinoline-3-carboxamide], the “α2-GABAAR Relative Efficacy (vs. Diazepam)” value (“α2-GABAAR Relative Efficacy” below) in the test on human α2β3γ2 GABAARs is listed as 0.15. Moreover, the pKi in test [1] was 8.25.

With `CCCNC(=O)c1c(N)c2cccc(-c3ncncc3OC)c2[nH]c1=O` [Example 37, 4-Amino-8-(5-methoxypyrimidin-4-yl)-2-oxo-N-propyl-1H-quinoline-3-carboxamide], in the test with human α2β3γ2 GABAARs, the “α2-GABAAR Relative Efficacy” value turned out to be 0.78. The pKi in test [1] was 8.12.

As for `CCCNC(=O)c1c(N)c2cccc(-c3cc(OCc4ccnnc4)ccc3F)c2[nH]c1=O` [Example 106, 4-Amino-8-[2-fluoro-5-(pyridazin-4-ylmethoxy)phenyl]-2-oxo-N-propyl-1H-quinoline-3-carboxamide], in the test on human α2β3γ2 GABAARs, the “α2-GABAAR Relative Efficacy” value is recorded as 0.22. Further, the pKi in test [1] is 9.39.

In the case of `CCCNC(=O)c1c(N)c2cccc(-c3c(F)cccc3F)c2[nH]c1=O` [Example 50, 4-Amino-8-(2,6-difluorophenyl)-2-oxo-N-propyl-1H-quinoline-3-carboxamide], the “α2-GABAAR Relative Efficacy” value in the test on human α2β3γ2 GABAARs was determined as 0.34. For the same compound, the pKi in test [1] is 9.68.

On to `CCCNC(=O)c1c(N)c2cccc(-c3cc(OCc4ccn(C)n4)ccc3F)c2[nH]c1=O` [Example 128, 4-Amino-8-[2-fluoro-5-[(1-methylpyrazol-3-yl)methoxy]phenyl]-2-oxo-N-propyl-1H-quinoline-3-carboxamide], for which the “α2-GABAAR Relative Efficacy” value with human α2β3γ2 GABAARs is recorded as 0.24. Further, the negative-log Ki (pKi) in test [1] is 8.97.

Turning to `CCCNC(=O)c1c(N)c2cccc(-c3cc(OCc4cc(CO)ccn4)ccc3F)c2[nH]c1=O` [Example 102, 4-Amino-8-(2-fluoro-5-((4-(hydroxymethyl)pyridin-2-yl)methoxy)phenyl)-2-oxo-N-propyl-1,2-dihydroquinoline-3-carboxamide], the “α2-GABAAR Relative Efficacy” value in the test on human α2β3γ2 GABAARs is given as 0.33. In test [1], the pKi is 9.15.

Take `CCCNC(=O)c1c(N)c2cccc(-c3cn(C)nc3C)c2n(CC)c1=O` [Example 83, 4-Amino-8-(1,3-dimethylpyrazol-4-yl)-1-ethyl-2-oxo-N-propyl-quinoline-3-carboxamide]: the “α2-GABAAR Relative Efficacy” value in the test with human α2β3γ2 GABAARs came to 0.40. For the same compound, the pKi in test [1] is 7.80.

Turning to `CCCNC(=O)c1c(N)c2cccc(-c3cc(OC)ccc3F)c2[nH]c1=O` [Example 49, 4-Amino-8-(2-fluoro-5-methoxy-phenyl)-2-oxo-N-propyl-1H-quinoline-3-carboxamide], the “α2-GABAAR Relative Efficacy” value with human α2β3γ2 GABAARs is on record as 0.26. In test [1], the pKi was 9.37.

Regarding `CCCNC(=O)c1c(N)c2cccc(-c3cc(CN4CC5(CCOCC5)C4)ccc3F)c2[nH]c1=O` [Example 141, hydrochloride], in the test with human α2β3γ2 GABAARs, the “α2-GABAAR Relative Efficacy” value was 0.36. Moreover, the pKi in test [1] is 8.58.

Consider `CCCNC(=O)c1c(N)c2cccc(-c3cc(OCc4cncnc4)ccc3F)c2[nH]c1=O` [Example 107, 4-Amino-8-[2-fluoro-5-(pyrimidin-5-ylmethoxy)phenyl]-2-oxo-N-propyl-1H-quinoline-3-carboxamide], for which the “α2-GABAAR Relative Efficacy” value with human α2β3γ2 GABAARs turned out to be 0.17. In addition, the negative-log Ki (pKi) in test [1] is 9.70.

For the compound `CCCNC(=O)c1c(N)c2cccc(-c3cc(OCc4cccnn4)ccc3F)c2[nH]c1=O` [Example 105, 4-Amino-8-[2-fluoro-5-(pyridazin-3-ylmethoxy)phenyl]-2-oxo-N-propyl-1H-quinoline-3-carboxamide], the “α2-GABAAR Relative Efficacy” value with human α2β3γ2 GABAARs is on record as 0.19. Moreover, the pKi in test [1] was 9.68.

`CCCNC(=O)c1c(N)c2cccc(-c3cc(OCc4cccc(C(F)(F)F)n4)ccc3F)c2[nH]c1=O` [Example 90, 4-Amino-8-[2-fluoro-5-[[6-(trifluoromethyl)-2-pyridyl]methoxy]phenyl]-2-oxo-N-propyl-1H-quinoline-3-carboxamide]: in the test on human α2β3γ2 GABAARs, the “α2-GABAAR Relative Efficacy” value worked out at 0.18. For the same compound, the pKi in test [1] is 8.52.

Consider `COc1ccncc1-c1cccc2c(N)c(C(=O)NCC(C)C)c(=O)[nH]c12` [Example 60, 4-Amino-N-isobutyl-8-(4-methoxy-3-pyridyl)-2-oxo-1H-quinoline-3-carboxamide], for which the “α2-GABAAR Relative Efficacy” value in the test on human α2β3γ2 GABAARs is 0.65. The pKi in test [1] was 7.81.

As for `CCCNC(=O)c1c(N)c2cccc(-c3cc(OCc4ccc(Cl)cn4)ccc3F)c2[nH]c1=O` [Example 97, 4-Amino-8-[5-[(5-chloro-2-pyridyl)methoxy]-2-fluoro-phenyl]-2-oxo-N-propyl-1H-quinoline-3-carboxamide], in the test on human α2β3γ2 GABAARs, the “α2-GABAAR Relative Efficacy” value was 0.25. Besides, the pKi in test [1] is 9.14.

In the case of `CCCNC(=O)c1c(N)c2cccc(-c3ccnc(C)n3)c2[nH]c1=O` [Example 38, 4-Amino-8-(2-methylpyrimidin-4-yl)-2-oxo-N-propyl-1,2-dihydroquinoline-3-carboxamide], the “α2-GABAAR Relative Efficacy” value in the test with human α2β3γ2 GABAARs is recorded as 0.18. Moreover, the negative logarithm of the Ki (pKi) in test [1] was 8.96.

For the compound `CCCNC(=O)c1c(N)c2cccc(-c3cc(OCc4cc(OC)ccn4)ccc3F)c2[nH]c1=O` [Example 100, 4-Amino-8-[2-fluoro-5-[(4-methoxy-2-pyridyl)methoxy]phenyl]-2-oxo-N-propyl-1H-quinoline-3-carboxamide], in the test on human α2β3γ2 GABAARs, the “α2-GABAAR Relative Efficacy” value is 0.18. In addition, in test [1], the pKi was 10.15.

`CCCNC(=O)c1c(N)c2cccc(-c3cc(OCc4scnc4C)ccc3F)c2[nH]c1=O` [Example 117, 4-Amino-8-[2-fluoro-5-[(4-methylthiazol-5-yl)methoxy]phenyl]-2-oxo-N-propyl-1H-quinoline-3-carboxamide]: in the test with human α2β3γ2 GABAARs, the “α2-GABAAR Relative Efficacy” value is reported as 0.23. For the same compound, the negative-log Ki (pKi) in test [1] is 8.80.

Consider `CCCNC(=O)c1c(N)c2cccc(-c3ccncc3)c2[nH]c1=O` [Example 31, 4-Amino-2-oxo-N-propyl-8-(pyridin-4-yl)-1,2-dihydroquinoline-3-carboxamide], for which the “α2-GABAAR Relative Efficacy” value in the test on human α2β3γ2 GABAARs was found to be 0.24. Also, in test [1], the pKi was 8.48.

Consider `CCCNC(=O)c1c(N)c2cccc(-c3cnccc3COC)c2[nH]c1=O` [Example 21, 4-Amino-8-(4-(methoxymethyl)pyridin-3-yl)-2-oxo-N-propyl-1,2-dihydroquinoline-3-carboxamide], for which the “α2-GABAAR Relative Efficacy” value in the test with human α2β3γ2 GABAARs was found to be 0.12. In addition, the pKi in test [1] was 7.53.

With `CCCNC(=O)c1c(N)c2cccc(-c3cc(OCc4ccncc4)ccc3F)c2[nH]c1=O` [Example 113, 4-Amino-8-[2-fluoro-5-(4-pyridylmethoxy)phenyl]-2-oxo-N-propyl-1H-quinoline-3-carboxamide], in the test with human α2β3γ2 GABAARs, the “α2-GABAAR Relative Efficacy” value was found to be 0.24. Besides, in test [1], the pKi is 9.92.

Regarding `CCCNC(=O)c1c(N)c2cccc(-c3cc(OCc4ccc(C#N)cc4OC)ccc3F)c2[nH]c1=O` [Example 115, 4-Amino-8-[5-[(4-cyano-2-methoxy-phenyl)methoxy]-2-fluoro-phenyl]-2-oxo-N-propyl-1H-quinoline-3-carboxamide], in the test on human α2β3γ2 GABAARs, the “α2-GABAAR Relative Efficacy” value turned out to be 0.34. Besides, in test [1], the pKi is 8.70.

Consider `COc1ccncc1-c1cccc2c(N)c(C(=O)NCCCF)c(=O)[nH]c12` [Example 67, 4-Amino-N-(3-fluoropropyl)-8-(4-methoxy-3-pyridyl)-2-oxo-1H-quinoline-3-carboxamide], for which, in the test on human α2β3γ2 GABAARs, the “α2-GABAAR Relative Efficacy” value was found to be 0.54. Further, the negative-log Ki (pKi) in test [1] was 8.43.
